Earlier results on 1 molecule are cited in patent publication US7094785B1, “Method of treating polycythemia vera” (Cornell Research Foundation, Inc., priority 2002, dated 2006).

Structures can show the parent of a compound that is named as a salt.

In the data set the test system is essential thrombocythemia or myelofibrosis.

For the molecule `Cc1ccc(NC(=O)c2ccc(CN3CCN(C)CC3)cc2)cc1Nc1nccc(-c2cccnc2)n1` [imatinib mesylate, N-{5-[4-(4-methyl-piperazino-methyl)-benzoylamido]-2-methylphenyl}-4-(3-pyridyl)-2-pyrimidine-amine], the “effectiveness in other myeloproliferative disorders” value was “not effective”.
